Data taken from US20230398163A1, “FRUIT EXTRACTS FOR USE IN THE TREATMENT OF NEURODEGENERATIVE DISEASES” (NEUROSCIENCE PHARMA SPA, priority 2020, published 2023).

Tested on: PC12 cells
Experiment: MTT cell viability assay, extract alone
Format: cell-based
Settings: addition of FCCP
Procedure: Cellular health was quantified using a 3-(4,5-dimethylthizol-2-yl)-2,5-diphenyltetrazolium bromide (MTT) assay, which indicates cell viability. Cultured PC12 cells were incubated in MTT (1 mg/ml) in 1X DPBS (Dulbecco's phosphate-buffered saline) for 30 minutes, in the presence (or absence) of maqui berry extract provided a concentrations ranging from 0.000081 mg/l to 81 mg/l. Precipitated MTT was dissolved using isopropanol for 15 minutes prior to being added to the culture medium. The cell absorbance was measured in a microplate reader (Novostar, BGM, Germany) at two wavelengths: 560 nm and 620 nm. The difference in cellular absorbance was quantified between the two wavelengths using NovoStar software across experimental conditions.

N#CC(C#N)=NNc1ccc(OC(F)(F)F)cc1 [FCCP, Carbonyl cyanide 4-(trifluoromethoxy)phenylhydrazone]
cell viability percent relative to control (MTT): significant decrease in cell viability percent relative to control levels
